pEC50: −log10 of the molar value. Where two headings read alike, the source gives them in different places.
Key:
Assay type in all cases: cell-based
RSV A strain A2 = assay: RSV HAE EC50 (intracellular RSV RNA by real-time PCR in HAE cells); conditions: human respiratory syncytial virus, 72 h, read-out: RSV HAE EC50
Procedure: HAE cells are cultured at the air-liquid interface and have an apical side that is exposed to the air and a basal side that is in contact with the medium. Prior to experimentation, HAE were removed from their agar-based shipping packaging and were acclimated to 37° C./5% CO2 overnight in 1 ml of HAE Assay medium (AIR-100-MM, Mattek Corp). HAE were prepared for infection by washing the apical surface twice with 400 μL of PBS (either utilizing direct pipetting methods or by running each transwell through a trough containing PBS) to remove the mucus layer. Apical chambers were drained of PBS and tapped gently onto absorbent material to remove as much PBS as possible. After washing, the cells were transferred to fresh HAE maintenance media containing 4-fold serially diluted compound, delivered to the basal side of the cell monolayer, and apically infected with 100 μL of a 1:600 dilution of RSV A strain A2 1000× stock (ABI, Columbia, MD, cat #10-124-000) in HAE assay medium for 3 hours at 37° C. in 5% CO2. The virus inoculum was removed and the apical surface of the cells was washed 3 times with PBS using either method previously described. The cells were then cultured in the presence of compound for 3 days at 37° C. Following the incubation, total RNA was extracted from the HAE cells using a MagMAX-96 Viral RNA isolation kit (Applied Biosystems, Foster City, CA, Cat #AM1836) and intracellular RSV RNA was quantified by real-time PCR. Approximately 25 ng of purified RNA was added to a PCR reaction mixture that contained 0.9 μM RSV N Forward and RSV N Reverse primers, 0.2 μM RSV N Probe and 1×Taqman RNA-to-Ct 1-Step Kit (Applied Biosystems, Foster City, CA, Cat #4392938). RNA levels were normalized using a Tagman GAPDH control primer set (Applied Biosystems, Foster City, CA, Cat #402869). Real-Time PCR Primers and Probe Used in the RSV A2 HAE Antiviral Assay: […]

HRVc25 replicon = assay: HRVc25 EC50 (replicon luciferase in H1-HeLa cells); conditions: 48 hrs
Procedure: (§1) First, HRV replicon RNA is prepared. 5 ug of DNA Template (HRVc15 or HRVc25) is linearized with 2 μL of MluI enzyme in NEB buffer-3 in a final volume of 25 μL for 3 hours at 37° C. Following incubation, linearized DNA is purified on a PCR purification column and the following in vitro transcription is performed using the following conditions: 10 μL of RiboMAX Express T7 2× buffer, 1-8 μL of linear DNA template (1 μg), 0-7 μL nuclease free water, 2 μL enzyme mix T7 express. The final volume of 20 μL is mixed and incubated at 37° C. for 30 min. Following incubation, 1 μL of RQ1 RNase free DNase is added and the mixture is incubated at 37° C. for 15 min. The resulting RNA is then purified with the MegaClear Kit (Gibco Life Technologies cat #11835-030) and is eluted two times with 50 μL of elution buffer at 95° C. […] Replicon activity is then measured by a Renilla-Glo Luciferase Assay system. Prior to signal quantification, plates are removed from incubators and are allowed to equilibrate to 25° C. after 50 uL is removed from each well. […] Plates are then incubated for 20 min at 25° C. under gentle agitation and luciferase signal are determined with a 0.1 second detection setting using an EnVision luciferase quantification reader.

HRVc15 replicon = assay: HRVc15 EC50 (replicon luciferase in H1-HeLa cells); conditions: 48 hrs
Procedure: as §1

HRV1a = assay: HRV1A HELA EC50 (cytopathic effect in H1-HeLa cells); conditions: 96 h, read-out: HRV1A HELA EC50
Procedure: H1-HeLa cells, cultured in complete RPMI 1640 medium containing 10% heat-inactivated FBS and 1% Penicillin/Streptomycin, were seeded in 96 well plates at 5000 cells/well one day prior to compound dosing and infection. The antiviral activity of each compound was measured in triplicate. Compounds were added directly to the cell cultures in serial 3-fold dilutions using the HP300 digital dispenser (Hewlett Packard, Palo Alto, CA) immediately prior to infection. The plates were transferred to BSL-2 containment and 100 μL of 1/4000 dilution of HRV1a virus stock was added to each well containing cells and serially diluted compounds. Each plate included 6 wells of infected untreated cells and 6 wells of cells containing 5 μM Rupintrivir that served as 0% and 100% virus inhibition control, respectively. Following the infection, test plates were incubated for 96 h in a tissue culture incubator set to 37° C./5% CO2. Following incubation, the H1-HeLa cells were removed from incubation and allowed to equilibrate to 25° C. Cell viability was determined by removing 100 μL of culture medium and adding 100 μL of Cell-Titer Glo viability reagent. The mixtures were incubated on a shaker for 10 minutes at 25° C., and the luminescence signal was quantified on an Envision luminescence plate reader.

HRV99 = HRV99 EC50
HRV10 = HRV10 HELA EC50

Row | SMILES | pEC50 (RSV A strain A2; HAE) | pEC50 (HRVc25 replicon) | pEC50 (HRVc15 replicon) | pEC50 (HRV1a) | pEC50 (HRV99) | pEC50 (HRV10) | pEC50 (HRV1a; H1-HeLa cells) | pEC50 (RSV A strain A2; HAE cells, RSV A2, 3 days)
1 | C[C@H](N[P@](=O)(OC[C@@]1(C#N)O[C@@H](c2ccc3c(N)ncnn23)[C@H](O)[C@@H]1O)Oc1ccccc1)C(=O)OC1CCCCC1 (single isomer, unassigned) [Example 6] | 7.70 | 8.15 | 8.05 | – | – | – | – | –
2 | C[C@H](NP(=O)(OC[C@@]1(C#N)O[C@@H](c2ccc3c(N)ncnn23)[C@H](O)[C@@H]1O)Oc1ccccc1)C(=O)OC1CCCCC1 (stereo partly drawn) [Example 4, (2S)-cyclohexyl 2-(((((2R,3S,4R,5S)-5-(4-aminopyrrolo[2,1-f][1,2,4]triazin-7-yl)-2-cyano-3,4-dihydroxytetrahydrofuran-2-yl)methoxy)(phenoxy)phosphoryl)amino)propanoate] | – | – | – | 6.72 | 5.96 | 6.84 | – | –
3 | CCC(CC)COC(=O)[C@@H](C)NP(=O)(OC[C@@]1(C#N)O[C@@H](c2ccc3c(N)ncnn23)[C@H](O)[C@@H]1O)Oc1ccccc1 (stereo partly drawn) [Example 82, (2R)-2-ethylbutyl 2-(((((2R,3S,4R,5S)-5-(4-aminopyrrolo[2,1-f][1,2,4]triazin-7-yl)-2-cyano-3,4-dihydroxytetrahydrofuran-2-yl)methoxy)(phenoxy)phosphoryl)amino)propanoate] | – | – | – | 5.56 | 4.71 | 5.57 | – | –
4 | C[C@H](NP(=O)(OC[C@@]1(C#N)O[C@@H](c2ccc3c(N)ncnn23)[C@H](O)[C@@H]1O)Oc1ccccc1)C(=O)OCC(C)(C)C (stereo partly drawn) [Example 92, (2S)-neopentyl 2-(((((2R,3S,4R,5S)-5-(4-aminopyrrolo[2,1-f][1,2,4]triazin-7-yl)-2-cyano-3,4-dihydroxytetrahydrofuran-2-yl)methoxy)(phenoxy)phosphoryl)amino)propanoate] | – | – | – | 7.01 | 6.19 | 7.09 | – | –
5 | CCCCCCCCCCCCCCCCCCOC[C@H](COP(=O)(O)OC[C@@]1(C#N)O[C@@H](c2ccc3c(N)ncnn23)[C@H](O)[C@@H]1O)OCc1ccccc1 [Example 96, ((2R,3S,4R,5S)-5-(4-aminopyrrolo[2,1-f][1,2,4]triazin-7-yl)-2-cyano-3,4-dihydroxytetrahydrofuran-2-yl)methyl ((R)-2-(benzyloxy)-3-(octadecyloxy)propyl) hydrogen phosphate] | – | – | – | – | 4.19 | 5.63 | 5.80 | 4.65
6 | CCC(CC)OC(=O)[C@H](C)NP(=O)(OC[C@@]1(C#N)O[C@@H](c2ccc3c(N)ncnn23)[C@H](O)[C@@H]1O)Oc1ccccc1 (stereo partly drawn) [Example 101, (2S)-pentan-3-yl 2-(((((2R,3S,4R,5S)-5-(4-aminopyrrolo[2,1-f][1,2,4]triazin-7-yl)-2-cyano-3,4-dihydroxytetrahydrofuran-2-yl)methoxy)(phenoxy)phosphoryl)amino)propanoate] | – | – | – | 5.79 | 5.13 | 5.88 | – | –

From patent US20230295201A1 (Gilead Sciences, Inc., priority 2020, published 2023)
